Experimental findings from BindingDB's records for doi:10.1016/j.bmcl.2009.05.029 (Institute, 2009) are described below.

This experiment can be described thus: Inhibition of EphB2.

Usually EC50 stands for the midpoint of the concentration-response curve. Low readings indicate an effect from little substance, high ones a need for much substance. Consider `Cc1cn(-c2cc(NC(=O)c3ccc(C)c(NC(=O)c4ccno4)c3)cc(C(F)(F)F)c2)cn1` [N-(2-methyl-5-(3-(4-methyl-1H-imidazol-1-yl)-5-(trifluoromethyl)phenylcarbamoyl)phenyl)isoxazole-5-carboxamide], for which the response was half-maximal at 40 nM (EC50).
In turn, `Cc1ccc(C(=O)Nc2cccc(C(F)(F)F)c2)cc1Nc1cncc(C(N)=O)c1` [5-[(2-methyl-5-{[3-(trifluoromethyl)phenyl]carbamoyl}phenyl)amino]pyridine-3-carboxamide] had an EC50 of 40 nM.
